Reference: US5470852A, “Tetrahydroprotoberberine quaternary ammonium compounds useful in for treating arrhythmia” (priority 1991, dated 1995)
Read-outs that look alike come from different tables or passages of the source.

Key:
anaesthetized rats = details: for Arrhythmic scores / Antiarrhythmic effect / Lethal risk: X ± SD; for Incidence of VF: n=10; for animals with VF / animals without VF / Death: of n=10; for therapeutic index (TI), VF / therapeutic index (TI), arrhythmias: rat, in vivo
[1] = tested on: Langendorff's perfused rat hearts; assay: Ischemia/reperfusion-induced arrhythmias, I13 in perfusate, Langendorff's perfused rat hearts; assay type: cell-based
Description: FIG. 2. Influence of I13 in perfusate on the time course of reperfusion-induced arrhythmias in Langendorff's perfused rat hearts

[2] = tested on: normal papillary muscles in rats; assay: Action potential in normal papillary muscles in rats; assay type: cell-based, rat; details: n=6, I13 concentration not given
Description: Effect of I13 (μ mol/L) on estimates of action potential induced in
normal and pathological papillary muscles in rats.

**Q.** For `COc1ccc2c(c1OC)C[N+]1(Cc3ccc(Cl)cc3)CCc3cc4c(cc3C1C2)OCO4` (stereo not shown) [Compound I13, 7-(4-chlorobenzyl)-5,8,13,13a-tetrahydroberberine chloride], which “potency relative to propafenon” value (anaesthetized rats; p.o.) is on record?
**A.** Its value is “considerably more potent”.

**Q.** And the Arrhythmic scores (anaesthetized rats; po 10 mg/kg)?
**A.** Its Arrhythmic scores is 2.7 ± 1.9.

**Q.** What about the Antiarrhythmic effect (anaesthetized rats; po 10 mg/kg, coronary occlusion 5 min) of the same compound?
**A.** The Antiarrhythmic effect was 0.4 ± 0.8.

**Q.** And the Antiarrhythmic effect (anaesthetized rats; po 10 mg/kg, coronary occlusion 10 min)?
**A.** The Antiarrhythmic effect was 0.50 ± 0.16.

**Q.** What about the “Incidence of VF” value (anaesthetized rats; po 10 mg/kg) of the same compound?
**A.** The value was 20%.

**Q.** And the “animals with VF” value (anaesthetized rats; po 10 mg/kg)?
**A.** Its value is 2.

**Q.** And the “animals without VF” value (anaesthetized rats; po 10 mg/kg)?
**A.** The value was 8.

**Q.** What about the Antiarrhythmic effect (anaesthetized rats; po 10 mg/kg, reperfusion 0.17 min) of the same compound?
**A.** Its Antiarrhythmic effect is 2.6 ± 1.8.

**Q.** What about the Antiarrhythmic effect (anaesthetized rats; po 10 mg/kg, reperfusion 0.33 min) of the same compound?
**A.** Its Antiarrhythmic effect is 2.7 ± 1.9.

**Q.** What about the Antiarrhythmic effect (anaesthetized rats; po 10 mg/kg, reperfusion 0.5 min) of the same compound?
**A.** Its Antiarrhythmic effect is 1.9 ± 1.7.

**Q.** And the Antiarrhythmic effect (anaesthetized rats; po 10 mg/kg, reperfusion 1 min)?
**A.** The Antiarrhythmic effect was 1.9 ± 1.6.

**Q.** What about the Antiarrhythmic effect (anaesthetized rats; po 10 mg/kg, reperfusion 1.5 min) of the same compound?
**A.** Its Antiarrhythmic effect is 1.4 ± 1.3.

**Q.** What about the Antiarrhythmic effect (anaesthetized rats; po 10 mg/kg, reperfusion 3 min) of the same compound?
**A.** Its Antiarrhythmic effect is 1.1 ± 1.5.

**Q.** What about the Antiarrhythmic effect (anaesthetized rats; po 10 mg/kg, reperfusion 4 min) of the same compound?
**A.** Its Antiarrhythmic effect is 1.2 ± 1.4.

**Q.** And the Antiarrhythmic effect (anaesthetized rats; po 10 mg/kg, reperfusion 5 min)?
**A.** The Antiarrhythmic effect was 1.0 ± 1.2.

**Q.** And the Antiarrhythmic effect (anaesthetized rats; po 10 mg/kg, reperfusion 6 min)?
**A.** Its Antiarrhythmic effect is 0.8 ± 1.1.

**Q.** And the Antiarrhythmic effect (anaesthetized rats; po 10 mg/kg, reperfusion 7 min)?
**A.** The Antiarrhythmic effect was 0.8 ± 1.1.

**Q.** And the Antiarrhythmic effect (anaesthetized rats; po 10 mg/kg, reperfusion 15 min)?
**A.** The Antiarrhythmic effect was 0.8 ± 1.1.

**Q.** What about the Antiarrhythmic effect (anaesthetized rats; po 10 mg/kg, reperfusion 25 min) of the same compound?
**A.** The Antiarrhythmic effect was 0.8 ± 1.1.

**Q.** And the Arrhythmic scores (anaesthetized rats; po 30 mg/kg)?
**A.** Its Arrhythmic scores is 3.2 ± 2.2.

**Q.** And the “Lethal risk” value (anaesthetized rats; po 30 mg/kg)?
**A.** Its value is 57 ± 26.

**Q.** And the Antiarrhythmic effect (anaesthetized rats; po 30 mg/kg, coronary occlusion 5 min)?
**A.** Its Antiarrhythmic effect is 0 ± 0.

**Q.** What about the Antiarrhythmic effect (anaesthetized rats; po 30 mg/kg, coronary occlusion 10 min) of the same compound?
**A.** The Antiarrhythmic effect was 1.6 ± 1.6.

**Q.** What about the “Incidence of VF” value (anaesthetized rats; po 30 mg/kg) of the same compound?
**A.** Its value is 20%.

**Q.** And the Death (anaesthetized rats; po 30 mg/kg)?
**A.** The Death was 1.

**Q.** And the “animals with VF” value (anaesthetized rats; po 30 mg/kg)?
**A.** The value was 2.

**Q.** What about the “animals without VF” value (anaesthetized rats; po 30 mg/kg) of the same compound?
**A.** The value was 7.

**Q.** What about the Antiarrhythmic effect (anaesthetized rats; po 30 mg/kg, reperfusion 0.17 min) of the same compound?
**A.** The Antiarrhythmic effect was 3.2 ± 1.2.

**Q.** What about the Antiarrhythmic effect (anaesthetized rats; po 30 mg/kg, reperfusion 0.33 min) of the same compound?
**A.** Its Antiarrhythmic effect is 2.8 ± 2.1.

**Q.** And the Antiarrhythmic effect (anaesthetized rats; po 30 mg/kg, reperfusion 0.5 min)?
**A.** Its Antiarrhythmic effect is 1.7 ± 1.7.

**Q.** What about the Antiarrhythmic effect (anaesthetized rats; po 30 mg/kg, reperfusion 1 min) of the same compound?
**A.** Its Antiarrhythmic effect is 1.1 ± 1.5.

**Q.** What about the Antiarrhythmic effect (anaesthetized rats; po 30 mg/kg, reperfusion 1.5 min) of the same compound?
**A.** The Antiarrhythmic effect was 1.1 ± 1.5.

**Q.** And the Antiarrhythmic effect (anaesthetized rats; po 30 mg/kg, reperfusion 3 min)?
**A.** The Antiarrhythmic effect was 1.6 ± 2.4.

**Q.** And the Antiarrhythmic effect (anaesthetized rats; po 30 mg/kg, reperfusion 4 min)?
**A.** Its Antiarrhythmic effect is 0.8 ± 1.3.

**Q.** What about the Antiarrhythmic effect (anaesthetized rats; po 30 mg/kg, reperfusion 5 min) of the same compound?
**A.** Its Antiarrhythmic effect is 0.2 ± 0.2.

**Q.** And the Antiarrhythmic effect (anaesthetized rats; po 30 mg/kg, reperfusion 6 min)?
**A.** The Antiarrhythmic effect was 0.2 ± 0.2.

**Q.** And the Antiarrhythmic effect (anaesthetized rats; po 30 mg/kg, reperfusion 7 min)?
**A.** Its Antiarrhythmic effect is 0.15 ± 0.24.

**Q.** What about the Antiarrhythmic effect (anaesthetized rats; po 30 mg/kg, reperfusion 15 min) of the same compound?
**A.** The Antiarrhythmic effect was 0.11 ± 0.22.

**Q.** And the Antiarrhythmic effect (anaesthetized rats; po 30 mg/kg, reperfusion 25 min)?
**A.** Its Antiarrhythmic effect is 0.05 ± 0.17.

**Q.** What about the Arrhythmic scores (anaesthetized rats; po 100 mg/kg) of the same compound?
**A.** The Arrhythmic scores was 0.7 ± 0.2.

**Q.** What about the “Lethal risk” value (anaesthetized rats; po 100 mg/kg) of the same compound?
**A.** Its value is 41 ± 0.

**Q.** And the Antiarrhythmic effect (anaesthetized rats; po 100 mg/kg, coronary occlusion 5 min)?
**A.** Its Antiarrhythmic effect is 0.20 ± 0.24.

**Q.** And the Antiarrhythmic effect (anaesthetized rats; po 100 mg/kg, coronary occlusion 10 min)?
**A.** The Antiarrhythmic effect was 0.3 ± 0.6.

**Q.** What about the “Incidence of VF” value (anaesthetized rats; po 100 mg/kg) of the same compound?
**A.** The value was 0%.

**Q.** And the Death (anaesthetized rats; po 100 mg/kg)?
**A.** Its Death is 0.

**Q.** What about the “animals with VF” value (anaesthetized rats; po 100 mg/kg) of the same compound?
**A.** The value was 0.

**Q.** What about the “animals without VF” value (anaesthetized rats; po 100 mg/kg) of the same compound?
**A.** The value was 10.

**Q.** What about the Antiarrhythmic effect (anaesthetized rats; po 100 mg/kg, reperfusion 0.17 min) of the same compound?
**A.** Its Antiarrhythmic effect is 0.10 ± 0.21.

**Q.** And the Antiarrhythmic effect (anaesthetized rats; po 100 mg/kg, reperfusion 0.33 min)?
**A.** Its Antiarrhythmic effect is 0.05 ± 0.16.

**Q.** And the Antiarrhythmic effect (anaesthetized rats; po 100 mg/kg, reperfusion 0.5 min)?
**A.** Its Antiarrhythmic effect is 0.4 ± 1.2.

**Q.** And the Antiarrhythmic effect (anaesthetized rats; po 100 mg/kg, reperfusion 1 min)?
**A.** The Antiarrhythmic effect was 0.05 ± 0.16.

**Q.** And the Antiarrhythmic effect (anaesthetized rats; po 100 mg/kg, reperfusion 1.5 min)?
**A.** The Antiarrhythmic effect was 0.05 ± 0.16.

**Q.** What about the Antiarrhythmic effect (anaesthetized rats; po 100 mg/kg, reperfusion 3 min) of the same compound?
**A.** Its Antiarrhythmic effect is 0.05 ± 0.16.

**Q.** And the Antiarrhythmic effect (anaesthetized rats; po 100 mg/kg, reperfusion 4 min)?
**A.** Its Antiarrhythmic effect is 0.05 ± 0.16.

**Q.** What about the Antiarrhythmic effect (anaesthetized rats; po 100 mg/kg, reperfusion 5 min) of the same compound?
**A.** The Antiarrhythmic effect was 0.05 ± 0.16.

**Q.** What about the Antiarrhythmic effect (anaesthetized rats; po 100 mg/kg, reperfusion 6 min) of the same compound?
**A.** The Antiarrhythmic effect was 0.05 ± 0.16.

**Q.** What about the Antiarrhythmic effect (anaesthetized rats; po 100 mg/kg, reperfusion 7 min) of the same compound?
**A.** Its Antiarrhythmic effect is 0.05 ± 0.16.

**Q.** What about the Antiarrhythmic effect (anaesthetized rats; po 100 mg/kg, reperfusion 15 min) of the same compound?
**A.** The Antiarrhythmic effect was 0.05 ± 0.16.

**Q.** And the Antiarrhythmic effect (anaesthetized rats; po 100 mg/kg, reperfusion 25 min)?
**A.** Its Antiarrhythmic effect is 0.05 ± 0.16.

**Q.** What about the “therapeutic index (TI), VF” value (anaesthetized rats; iv) of the same compound?
**A.** The value was 35.

**Q.** And the “therapeutic index (TI), arrhythmias” value (anaesthetized rats; iv)?
**A.** The value was 26.

**Q.** And the “therapeutic index (TI), VF” value (anaesthetized rats; po)?
**A.** Its value is 92.

**Q.** And the “therapeutic index (TI), arrhythmias” value (anaesthetized rats; po)?
**A.** The value was 70.

**Q.** What about the “protection against VT and VF induced by ischemia and reperfusion” value ([1]; 3 μmol/L) of the same compound?
**A.** The value was “effective protection against the VT and VF”.

**Q.** And the ke ([1]; 3 μmol/L (FIG. 2))?
**A.** The ke was 0.030 min⁻¹.

**Q.** And the ke ([1]; 10 μmol/L (FIG. 2))?
**A.** Its ke is 0.020 min⁻¹.

**Q.** And the APA [2]?
**A.** Its APA is 108 ± 9 mv.

**Q.** What about the APD20 [2] of the same compound?
**A.** Its APD20 is 5 ± 1 ms.

**Q.** And the APD50 [2]?
**A.** The APD50 was 15 ± 4 ms.

**Q.** What about the APD90 [2] of the same compound?
**A.** Its APD90 is 44 ± 9 ms.

**Q.** What about the ERP [2] of the same compound?
**A.** The ERP was 43 ± 8 ms.

**Q.** What about the RP [2] of the same compound?
**A.** Its RP is 83 ± 4 mv.

**Q.** What about the Vmax [2] of the same compound?
**A.** Its Vmax is 200 ± 50 v/s.
